Data from patent publication US20220387460A1, “LIPOSOME COMPOSITIONS AND METHODS OF TREATMENT TARGETED TO TUMOR ENDOTHELIUM” (Washington University, priority 2019, published 2022).
Where two headings read alike, the source gives them in different places.

Assays:
[1] = in vivo; cited from earlier work
relapsed MM patients = settings: combination treatment of AMD3100 and BTZ; cited from earlier work
MM1.S cells = experiment: Immunoblotting of adhesion signaling proteins (pSRC, pFAK) in MM cells co-cultured with HUVECs; format: cell-based; settings: 25 μM, 6 hours (FIG. 4A)
Experimental: (§1) HUVECs and MM1.S cells were co-cultured overnight and treated with vehicle (control), free Y27632 (25 μM), free BTZ (5 nM), empty liposomes, liposomal Y27632 (25 μM), liposomal BTZ (5 nM) for 6 hours. MM cells were then separated from the HUVECs and both cell types were collected. The proteins were then extracted and subjected to immunoblotting for pSRC, pFAK, p21, pRB, cPARP, cCasp3, cCasp9, pAKT, pS6R, pERK, and α-Tubulin.
(§2) The immunoblotting protocol was performed as previously described below. Briefly, cells were lysed with 1× lysis buffer (Cell Signaling, #9803), the protein concentration was determined by Bradford assay (BioRad, Hercules, Calif.), and 50 μg of protein was loaded per lane. Electrophoresis was performed using NuPAGE 4%-12% Bis-Tris gels (Novex, Life Technologies, Grand Island, N.Y.) and transferred to a nitrocellulose membrane using iBlot (Invitrogen). Membranes were blocked with 5% non-fat milk in Tris-Buffered Saline/Tween20 (TBST) buffer and incubated with primary antibodies overnight at 4° C. The membranes were then washed with TBST for 30 minutes, incubated for 1 hour at room temperature with horseradish peroxidase (HRP)-conjugated secondary antibody, washed, and developed using Novex ECL Plus chemiluminescent Kit. Images were taken using a ChemiDoc XRS imaging system (Bio-Rad).

HUVECs [2] = experiment: Immunoblotting of adhesion signaling proteins (pSRC, pFAK) in HUVECs co-cultured with MM cells; format: cell-based, human; settings: 25 μM, 6 hours (FIG. 4B)
Experimental: as §1, §2

MM.1S-GFP-Luc cells = experiment: MM tumor progression (BLI) and survival in MM.1S-GFP-Luc-bearing mice; format: in vivo; settings: weekly intravenous, BTZ 1 mg/kg; for tumor progression / tumor growth (BLI): Y27632 2.5 mg/kg (FIGS. 6A-C, 8A-D); for survival of the mice: Y27632 2.5 mg/kg (FIGS. 6D-F, 9A-D)
Experimental: Mice were randomized into 12 groups of 7 mice each, which received weekly intravenous injections of: (i) saline, (ii) Y27632 as a free drug (2.5 mg/kg), (iii) BTZ as a free drug (1 mg/kg), (iv) combination of free BTZ and free Y27632, (v) empty non-targeted liposomes, (vi) non-targeted liposomal Y27632 (2.5 mg/kg-equivalent), (vii) non-targeted liposomal BTZ (1 mg/kg), (viii) non-targeted liposomal combination of BTZ and Y27632 in the same liposome (2.5 mg/kg and 1 mg/kg, respectively), (ix) empty PSGL-1-targeted liposomes, (x) PSGL-1-targeted liposomal Y27632 (2.5 mg/kg), (xi) PSGL-1-targeted liposomal BTZ (1 mg/kg), (xii) PSGL-1-targeted liposomal combination of BTZ and Y27632 in the same liposome (2.5 mg/kg and 1 mg/kg, respectively). Tumor progression was assessed weekly by BLI, weight was recorded twice a week, and survival and general health of mice were recorded daily. The in vivo data were expressed as means±standard deviation.

[3] = Drug entrapment (encapsulation) efficiency by ultracentrifugation and HPLC; format: physicochemical; settings: drug loaded in liposomes; BTZ in lipid bilayer, Y27632 in hydrophilic core
Experimental: To evaluate loading efficiency, the liposomes were centrifuged at 38,000 rpm at 4° C. for 1 hour using a Beckman Optima™ XPN ultracentrifuge equipped with an SW 50.1 […] rotor (Beckman Coulter Inc., Fullerton, Calif., USA). The amount of BTZ and Y27632 in the supernatant was evaluated by HPLC as described in Example 9. The entrapment efficiency (EE) was calculated according to the following equation: EE=DT−DU/DT×100 where DT represents the total amount of drug added to the formulation during the preparation, and DU represents the amount of unincorporated drug found in the supernatant.

MM.1S cells [4] = experiment: Trans-endothelial migration of MM cells in Boyden chamber with SDF-1; format: cell-based; settings: 25 μM pre-treatment 3 hours, 30 nM SDF-1 (FIG. 4C)
Experimental: Trans-endothelial migration was by incubating HUVECs (5×10^3 cells) overnight in the upper chamber of a Boyden chamber (Corning), followed by an adhesion assay. MM.1S cells were pre-treated with (or without) free Y27632 (25 μM) or liposomal Y27632 (25 μM equivalent) for 3 hours. The pre-treated MM.1 S cells were then placed in the upper migration chamber in the presence or absence of 30 nM SDF-1 in the lower chamber. After 3 hours of incubation, MM.1 S cells that migrated to the lower chambers were counted by flow cytometry. The in vitro data were expressed as means±standard deviation.

MM.1S cells [5] = experiment: Viability of MM cells in co-culture with HUVECs (flow cytometry); format: cell-based; settings: Homo sapiens; 24 hours, 0-50 nM, co-culture with HUVECs (FIG. 5B); read-out: IC50, killing of MM cells
Experimental: (§3) DiD-labeled HUVECs and DiO-labeled MM.1S cells were co-cultured overnight and treated with free BTZ (0-50 nM) or liposomal BTZ (0-50 nM-equivalent) for 24 hours, and the survival of the MMs and HUVECs was analyzed via flow cytometry. MM cells were gated as DiO+ cells and HUVECs were gated as DiD+ cells, and each cell population was counted and normalized against counting beads (Invitrogen), and survival was calculated as a percentage of vehicle-treated controls. The in vitro data were expressed as means±standard deviation.

HUVECs [6] = experiment: Viability of HUVECs in co-culture with MM cells (flow cytometry); format: cell-based, human; settings: 24 hours, 0-50 nM, co-culture with MM.1S (FIG. 5C)
Experimental: as §3

[7] = cited from earlier work

Compound	pharmacokinetic (PK) half-life [1]	overall response rate (relapsed MM patients)	adhesion signaling proteins (pSRC and pFAK) in MM cells (MM1.S cells)	adhesion signaling proteins (pSRC and pFAK) in HUVECs (HUVECs [2])	tumor progression / tumor growth (BLI) (MM.1S-GFP-Luc cells)	survival of the mice (MM.1S-GFP-Luc cells)	maximal encapsulation efficiency (EE) [3]	SDF-induced trans-endothelial migration of MM cells (MM.1S cells [4])	IC50 (MM.1S cells [5])	survival of HUVECs (HUVECs [6])	maximum tolerated dose ([7]; intravenous bolus on days 1, 4, 8, and 11 of a 3-week cycle (Vorhees 2003))	maximum tolerated dose ([7]; intravenously once or twice weekly, patients with solid tumors (Orlowski 2003))
c1cc(CN2CCCNCCNCCCNCC2)ccc1CN1CCCNCCNCCCNCC1 [AMD3100]	3 to 5 h	510%										
C[C@@H](N)[C@H]1CC[C@H](C(=O)Nc2ccncc2)CC1 [Y27632]			decreased adhesion signaling	decreased adhesion signaling	did not affect the tumor growth	did not extend the survival	55%	reversed				
CC(C)C[C@H](NC(=O)[C@H](Cc1ccccc1)NC(=O)c1cnccn1)B(O)O [BTZ, bortezomib]	40 h				delayed significantly the tumor growth	significantly prolonged the survival	77%		~10 nM	No effect	about 1.56 mg/m^2	1.3 mg/m^2
